Like-named read-outs stand apart in the source and are kept apart here.
What was measured:
[1] = Metabolite profiling of ADP in excreta, plasma and bile (LC-v.ARC/MS-IT-TOF); type: in vivo, swine; settings: for percentage of the individual metabolite compared with the total concentration of ADP-related: within 6 h after dosing; for Average percentage of ADP and its metabolites in total dose: Swine, single oral 5 mg/kg b.w. ^3H-ADP
Method: (§1) Animals (4 swine, 6 broilers, 6 carp, and 3 male and 3 female rats) were housed individually in clean, suspended wire-mesh metabolism cages, designed to separate the urine from the feces (carp were raised in individual aquaria). Each animal was weighed and assigned with a permanent identification number. A single dose of ^3 H-ADP (5 mg/kg b. w., 0.1 Ci/g) was administered via the oral gavage. Excreta were collected on ice at the pre-administration, in the period of 6, 12, and 24 h on day 1 d, and afterwards, intermittently in the period of 24 h up to 14 d. The piscine excreta were collected by changing and collecting raised water. The total volume or weight of each sample was measured and homogenized. The total radioactivity levels were determined through LSC for the recovery calculations. After the preparation, the samples were analyzed through LC/MS-IT-TOF with v. ARC radiometric detection (XenoBioticLaboratories, Inc.) for metabolite profiling. The pretreatment samples were used as controls to determine the background radioactivity or the endogenous nondrug-related ions observed within respective matrices or their extracts.
(§2) A total of 36 animals from each species (swine n = 24) were randomly assigned to six equal treatment groups and administered a single daily dose of ^3 H-ADP at 5 mg/kg b. w. (0.1 Ci/g) through oral gavage for 7 consecutive days. All the animals were housed on the basis of their group in the cages or aquaria throughout the whole study period. A group of animals was slaughtered through exsanguination under diethyl ether inhalation of anesthesia in the period of 6 h, 1, 3, 7, 14, and 21 d after the administration. The blood samples were immediately collected into the heparinized tubes and was centrifuged at 1920 × g at 4 °C for 10 min to obtain the plasma. The tissues from the heart, liver, spleen, lung, kidney, craw (broilers), stomach, intestine, fat, skin, muscle, thymus, pancreas, bile, bladder, hair (scale for carp), genital gland, adrenal glands, swim bladder (carp), brain, lymph, and bursa (broilers) were carefully excised and collected. The tissues were thoroughly rinsed with the deionized water to remove the residuary blood, blotted to dryness, and finally to perform the homogenization. In order to avoid cross-contamination the dissecting instruments were washed during the tissue procurements. The blank tissues were collected in order to provide control matrices. The total radioactivity levels in each sample were determined through LSC. The samples extracted from the plasma, bile, and tissues of the liver, kidney, muscle, and fat/skin were analyzed through LC/MS-IT-TOF and v. ARC radiometric detection for metabolite profiling. The blank samples were used as control to determine the background radioactivity or the endogenous nondrug-related ions observed within respective matrices or their extracts.
(§3) For metabolite profiling, the urine and feces samples from each animals were pooled proportionally to the excreted amount in each sampling period from 0 to 6 h, 6 h to 1 d, 1 to 3 d, 3 to 7 d, and 7 to 14 d post-dose, respectively. All samples were fully homogenized before the process. The pre-dose and blank samples served as the controls for determining the background radioactivity or the endogenous, nondrug-related ions observed within respective matrices or their extracts.
(§4) The urine samples (plasma, bile and raised water for carp) was subjected to solid-phase extraction with an Oasis MCX cartridge (3 mL, […]; Waters, Milford, MA, USA) for metabolite purification and enrichment. The pH value was adjusted to 2.8–3.2 by adding 1 M hydrochloric acid (HCl), and 2 mL of the sample was transferred into MCX cartridge, which was preconditioned with 3 mL of methanol and 3 mL of 0.1 mol/L HCl solution. The cartridge was washed with 3 mL of 0.1 mol/L HCl solution and was eluted with 5 mL of NH4OH/methanol (4:96, v:v). The effluent was concentrated to dryness under a stream of nitrogen at 40 °C. […]

[2] = Concentration and elimination of ADP and its metabolites in liver, kidney, muscle, fat/skin after oral ^3H-ADP for 7 d; type: in vivo, rats; settings: for half-life: po; for concentration at 0.25 d / concentration at 1 d / concentration at 3 d / concentration at 7 d / concentration at 14 d: oral
Method: as §2
The feces and tissues (2 g) were diluted with a mixture of methanol and chloroform (1:3, v:v; 2 mL/g homogenate). This procedure was carried out in a fume hood for the safety aspects. The pH value was adjusted to 9.0 with NH4OH. The mixture was vortexed and sonicated for 5 min and 10 min, respectively, and finally the samples were centrifuged at 7690 × g for 10 min. The supernatant was aspirated and then transferred into a new centrifuge tube. The obtained pellet was again subjected to the same process of vortex, ultrasonication, extraction, and centrifugation. The combined supernatant was concentrated under a stream of nitrogen in a water bath at 40 °C. The residue was reconstituted with 0.3 mL of methanol–water (1:9, v:v) before the injection into the LC-v. ARC/MS-IT-TOF system for analysis.
ADP and its metabolites in the prepared samples were determined with a v. ARC radiometric detector and a hybrid IT/TOF mass spectrometer connected to the HPLC system (Shimadzu Corp., Kyoto, Japan). The LC system was equipped with a solvent delivery pump (LC-20AD), an auto-sampler (SIL-20AC), a degasser (DGU-20 A 3), a photodiode array detector (SPD-M20A), a communication base module (CBM-20 A), and a column oven (CTO-20AC). The chromatographic separation was achieved by using an Agilent extend-C18 column (2.1 mm × 150 mm, 5 μm) with a gradient mobile phase of A (0.01% ammonia and 5 mM ammonium acetate in water) and B (methanol) at a flow rate of 0.2 mL/min. The column temperature was maintained at 35 °C. Various HPLC methods were performed because of the large number of different metabolites to be analyzed. For the porcine sample, method 1 started at 5% B and increased to 20% B over 35 min, then to 55% B by 60 min, followed by re-equilibration for another 10 min. For the remaining samples, method 2 started at 10% B and increased to 60% B over 30 min, subsequently was maintained at 60% B for an additional 10 min, and then changed to 90% B over 2 min and maintained for 2 min. Afterwards, a re-equilibration step (decreased to 10% B over 1 min and maintained at 10% B for additional 9 min) was followed. For each matrix, more than 98% of the radioactivity injected into the column was eluted during the running time of the gradient program. […]

[3] = Metabolite profiling of ADP in excreta, plasma and bile (LC-v.ARC/MS-IT-TOF); type: in vivo, rats; settings: for Average percentage of ADP and its metabolites in total dose: Rat, single oral 5 mg/kg b.w. ^3H-ADP; for percentage of the individual metabolite compared with the total concentration of ADP-related: within 6 h after dosing
Method: as §1, §2, §3, §4

[4] = as above; type: in vivo, broilers; settings: for percentage of the individual metabolite compared with the total concentration of ADP-related: within 6 h after dosing; for Average percentage of ADP and its metabolites in total dose: Broilers, Excreta, single oral 5 mg/kg b.w. ^3H-ADP
Method: as §1, §2, §3, §4

[5] = rat kidney, after 5 mg/kg b. w. for 7 days, read-out: t1/2 of the individual compound (converted)
[6] = rat liver, after 5 mg/kg b. w. for 7 days, read-out: t1/2 of the individual compound (converted)
[7] = rat, tissues (liver, kidney, muscle, fat/skin), 5 mg/kg, rats tissues, read-out: t1/2 of the individual compound, range over tissues

Structure (SMILES)	percentage of the individual metabolite compared with the total concentration of ADP-related ([1]; Swine Feces)	percentage of the individual metabolite compared with the total concentration of ADP-related ([1]; Swine Plasma)	percentage of the individual metabolite compared with the total concentration of ADP-related ([1]; Swine Urine)	Average percentage of ADP and its metabolites in total dose ([1]; Feces)	Average percentage of ADP and its metabolites in total dose ([1]; Urine)	half-life [2, 5]	half-life [2, 6]	concentration at 0.25 d ([2]; rat, fat, 5 mg/kg b. w.)	concentration at 0.25 d ([2]; rat, kidney, 5 mg/kg b.w.)	concentration at 1 d ([2]; rat, kidney, 5 mg/kg b.w.)	concentration at 3 d ([2]; rat, kidney, 5 mg/kg b.w.)	concentration at 7 d ([2]; rat, kidney, 5 mg/kg b.w.)	concentration at 0.25 d ([2]; rat, liver, 5 mg/kg b. w.)	concentration at 1 d ([2]; rat, liver, 5 mg/kg b. w.)	concentration at 3 d ([2]; rat, liver, 5 mg/kg b. w.)	concentration at 7 d ([2]; rat, liver, 5 mg/kg b. w.)	concentration at 0.25 d ([2]; rat, muscle, 5 mg/kg b.w.)	concentration at 1 d ([2]; rat, muscle, 5 mg/kg b.w.)	half-life [2, 7]	Average percentage of ADP and its metabolites in total dose ([3]; Feces)	other results
COc1cc(Cc2cnc(N)nc2N)cc(OC)c1N(C)C [A0, 2,4-Diamino-5-[4-(dimethylamino)-3,5-dimethoxybenzyl] pyrimidine]	89.1%	53.0%	42.3%	16.0%	33.4%	76.8 h	100 h	290 ± 100 ng/g	3800 ± 1550 ng/g	1130 ± 430 ng/g	590 ± 110 ng/g	350 ± 80 ng/g	6140 ± 1890 ng/g	2830 ± 520 ng/g	1020 ± 270 ng/g	560 ± 120 ng/g	1020 ± 480 ng/g	700 ± 210 ng/g	62.2 to 100 h	14.0%	share of sample radioactivity ([1]; swine urine, period of 7–14 d (as the text reads), single oral dose): approximately 90%; half-life ([2]; rat fat, after 5 mg/kg b. w. for 7 days, read-out: t1/2 of the individual compound (converted)): 62.2 h; half-life ([2]; rat muscle, after 5 mg/kg b. w. for 7 days, read-out: t1/2 of the individual compound (converted)): 70.8 h; concentration at 1 d ([2]; rat, fat, 5 mg/kg b. w.): 150 ± 30 ng/g; concentration at 3 d ([2]; rat, fat, 5 mg/kg b. w.): 80 ± 10 ng/g; concentration at 7 d ([2]; rat, fat, 5 mg/kg b. w.): 30 ng/g; concentration at 14 d ([2]; rat, kidney, 5 mg/kg b.w.): 60 ± 10 ng/g; concentration at 14 d ([2]; rat, liver, 5 mg/kg b. w.): 170 ± 30 ng/g; concentration at 3 d ([2]; rat, muscle, 5 mg/kg b.w.): 380 ± 90 ng/g; concentration at 7 d ([2]; rat, muscle, 5 mg/kg b.w.): 170 ± 40 ng/g; share of the sample radioactivity in the detected tissues ([2]; rats liver, kidney, muscle, fat, over the sampling times): more than 42%; Average percentage of ADP and its metabolites in total dose ([3]; Urine): 61.3%; percentage of the individual metabolite compared with the total concentration of ADP-related ([3]; Rats Feces): 79.4%; percentage of the individual metabolite compared with the total concentration of ADP-related ([3]; Rats Plasma): 75.0%; percentage of the individual metabolite compared with the total concentration of ADP-related ([3]; Rats Urine): 71.2%; percentage of the individual metabolite compared with the total concentration of ADP-related ([4]; Broilers Extra (excreta)): 63.2%; percentage of the individual metabolite compared with the total concentration of ADP-related ([4]; Broilers Plasma): 51.6%; Average percentage of ADP and its metabolites in total dose [4]: 64.3%
CNc1c(OC)cc(Cc2cnc(N)nc2N)cc1OC [A1, N-monodesmethyl-ADP]	9.7%	23.7%	11.4%	2.9%	13.3%	50.6 h	64.6 h	70 ± 20 ng/g	2650 ± 970 ng/g	320 ± 120 ng/g	120 ± 20 ng/g	40 ± 10 ng/g	1940 ± 580 ng/g	390 ± 90 ng/g	180 ± 40 ng/g	80 ± 10 ng/g	250 ± 100 ng/g	140 ± 30 ng/g	50.6 to 64.6 h	2.7%	Average percentage of ADP and its metabolites in total dose ([3]; Urine): 13.8%; percentage of the individual metabolite compared with the total concentration of ADP-related ([3]; Rats Feces): 20.4%; percentage of the individual metabolite compared with the total concentration of ADP-related ([3]; Rats Plasma): 19.0%; percentage of the individual metabolite compared with the total concentration of ADP-related ([3]; Rats Urine): 14.7%; percentage of the individual metabolite compared with the total concentration of ADP-related ([4]; Broilers Extra (excreta)): 12.8%; percentage of the individual metabolite compared with the total concentration of ADP-related ([4]; Broilers Plasma): 23.4%; Average percentage of ADP and its metabolites in total dose [4]: 13.7%

Source: article PMC4738305, “Metabolism and Disposition of Aditoprim in Swine, Broilers, Carp and Rats” (Scientific Reports, 2016)
